Laboratory results taken from patent US8138196B2, “Antifungal wallboards and building materials and methods for the production thereof” (Syngenta Crop Protection, Inc., priority 2005, dated 2012).
Where “and” joins values, the source holds several entries; their conditions need not be identical. Identical values can stand only once.

Key:
Format in all cases: cell-based
[1] = system: Aureobasidium pullulans (ATCC 15233); experiment: Example 3 liquid culture assay on 24 well plates, solo and 2-way mixtures
Description: (§1) Alternaria tenuissima (DSM 63360), Penicillium chrysogenum (DSM 895), Stachybotrys chartarum (DSM2144), Aspergillus niger (DSM 63263), Aspergillus versicolor (DSM 1943) and Aureobasidium pullulans (ATCC 15233) were separately cultivated on PDA media to […] sporulation. Spore suspensions were produced for each fungi. Spore concentrations of approx. 100.000 spores/ml were used.
(§2) Test method used: liquid culture assay on 24 well plates.
(§3) For solo (i.e. single) ai testing the formulated fungicide (100 ul) was filled into the 24 well plates and 100 ul distilled water was added. Afterwards 800 ul of 0.3% AE media was added to the plate. The spore suspension of the specific fungi was added to this media in advance containing approx. 100,000 spores/ml. The 24 well plates were sealed and incubated at 24° C.
(§4) Dependent on the growth properties of each organisms, the evaluation was done after 3 to 6 days, when the surface of the check well was covered with mycelium. The evaluation was performed by assessing the growth of the fungi related to the check growth. The results are expressed as % activity relative to the check (values of 0-100% growth). Afterwards the results were converted in % O growth inhibition.
(§5) For synergism testing of the 2-way mixtures 100 ul of each fungicide were filled into 24 well plates and 800 ul of 0.3% AE media containing the spore suspension was added. Different ratios of the 2 fungicide rates were tested at the same time.
(§6) For the mixtures of different fungicides the synergism was calculated based on the Colby equation, which is described below: […]
(§7) The fungicidal action to be expected, We, for a given combination of two fungicides can be calculated as follows (see COLBY, S. R. “Calculating synergistic and antagonistic response of herbicide combinations”. Weeds 15, pages 20-22; 1967): We=X+[Y×(100−X)/100] wherein: • X=% activity in the case of treatment with the compound of formula I at rate x, in comparison with untreated control (=0%). • Y=% activity in the case of treatment with a compound of formula II at rate y, in comparison with untreated control. • We=expected activity (% activity in comparison with untreated control) after treatment with the compound of formula I and a compound of formula II at a rate of x+y kg of active ingredient.
(§8) If the activity actually observed is greater than the expected value We (factor observed activity/expected activity >1.2), there is a synergistic effect.

Coniophora puteana = experiment: radial mycelial growth on fungicide amended agar; conditions: estimated from graph of % activity (radial mycelial growth relative to agar without fungicide) against concentration
Experimental: Stem cultures of Coniophora puteana were produced by propagating the fungus on a growth medium comprising yeast extract (10 g), glycerol (20 ml), magnesium sulphate (0.5 g), sodium nitrate (6.0 g), potassium chloride (0.5 g), potassium dihydrogen orthophosphate (1.5 g), agar (20 g) in distilled water (980 ml).
Fungicides were added at levels of 5000, 100, 10, 1, 0.1 and 0.01 mg fungicide/litre of growth medium (described above) to give […] different growth medium compositions for each fungicide. Mycelial plugs were taken from the stem cultures and transferred upside down onto petri dishes containing the fungicide amended agar.
The radial mycelial growth of the fungus was measured individually on all test petri dishes. The results are expressed as % activity relative to the radial growth on agar without fungicide.
For each fungicide, a graph was drawn of percentage activity against concentration of fungicide in the growth medium. From this graph, the concentrations of fungicide required to achieve 80% activity was estimated. These figures are given in the results table.

[2] = system: Stachybotrys chartarum (DSM2144); experiment: Example 3 liquid culture assay on 24 well plates, solo and 2-way mixtures; conditions: test 006-2005
Description: as §1, §2, §3, §4, §5, §6, §7, §8

[3] = system: Alternaria tenuissima (DSM 63360); experiment: as above; conditions: test 015-2005
Description: as §1, §2, §3, §4, §5, §6, §7, §8

[4] = system: Alternaria tenuissima (DSM 63360); experiment: Example 4 liquid culture assay on 24 and 48 well plates, 3 way mixtures; conditions: A. tenuissima
Description: (§9) For test 006-2005: Alternaria tenuissima (DSM 63360), Penicillium chrysogenum (DSM 895), Cladosporium cladosporoides (DSM62121), Aspergillus niger (DSM 63263), Aspergillus versicolor (DSM 1943) and Aureobasidium pullulans (ATCC 15233) were separately cultivated on PDA media to […] sporulation. Spore suspensions were produced for each fungus. Spore concentrations of approx. 100,000 spores/ml were used.
(§10) […] Spore suspensions were produced for each fungus. Spore concentrations of approx. 100,000 spores/ml were used.
(§11) Test method used: liquid culture assay on 24 and 48 well plates respectively.
(§12) For testing of the 3 way mixtures each of the formulated fungicide (100 ul) was filled into the 24 and 48 well plates respectively. Afterwards 700 ul of 0.3% AE media was added to the plate. The spore suspension of the specific fungi was added to this media in advance containing approx. 100,000 spores/ml. For testing the solo compounds the equivalent of distilled water was added instead of the formulated fungicide volume of the mixing partners. The plates were then sealed and incubated at 24° C.
(§13) Dependent on the growth properties of each organisms, the evaluation was done after 3 to 6 days, when the surface of the check well was covered with mycelium. The evaluation was performed by assessing the growth of the fungi related to the check growth. The results are expressed as % activity relative to the check (values of 0-100% growth). Afterwards the results were converted in % growth inhibition.
(§14) For the mixtures of different fungicides the synergism was calculated based on the Colby equation, which is described above.

[5] = system: Aspergillus niger (DSM 63263); experiment: as above; conditions: A. niger
Description: as §9
For test 015-2006: Alternaria tenuissima (DSM 63360), Penicillium pinophilum (CBS342.61), Gliocladium virens (DSM1963), Aspergillus niger (DSM 63263), Stachybotrys chartarum (DSM 2144) and Aureobasidium pullulans (ATCC 15233) were separately cultivated on PDA media to […] sporulation. Spore suspensions were produced for each fungus. Spore concentrations of approx. 100,000 spores/ml were used.
as §11, §12, §13, §14

[6] = system: Aspergillus versicolor (DSM 1943); experiment: as above; conditions: test 006-2005, A. versicolor
Description: as §9, §11, §12, §13, §14

[7] = system: Stachybotrys chartarum (DSM 2144); experiment: as above; conditions: test 015-2005, S. chartarum
Experimental: as §10, §11, §12, §13, §14

Structure (SMILES): CC1COC(Cn2cncn2)(c2ccc(Oc3ccc(Cl)cc3)cc2Cl)O1 (stereo not shown) [Difenoconazole]
- inh % (DFZ alone) ([1]; test 006-2005, rate (DFZ) 3.12 mg ai/l): 70%

Structure (SMILES): CCCC1COC(Cn2cncn2)(c2ccc(Cl)cc2Cl)O1 (stereo not shown) [Propiconazole]
- Concentration required for 80% Activity (Coniophora puteana): 1.8 mg/L
- inh % (PPZ alone) ([1]; test 006-2005, rate (PPZ) 1.6 mg ai/l): 70%
- inh % (PPZ alone) ([1]; test 006-2005, rate (PPZ) 3.12 mg ai/l): 70%
- inh % (PPZ alone) ([1]; test 006-2005, rate (PPZ) 12.5 mg ai/l): 70%
- inh % (PPZ alone) ([1]; test 015-2005, rate (PPZ) 25 mg ai/l): 50%
- inh % (PPZ alone) ([1]; test 015-2005, rate (PPZ) 50 mg ai/l): 70%
- inh % (PPZ alone) ([2]; rate (PPZ) 0.8 mg ai/l): 0%
- inh % (PPZ alone) ([2]; rate (PPZ) 1.6 mg ai/l): 10%
- inh % (PPZ alone) ([2]; rate (PPZ) 3.12 mg ai/l): 10%

Structure (SMILES): c1ccc2[nH]c(-c3cscn3)nc2c1 [Thiabendazole]
- Concentration required for 80% Activity (Coniophora puteana): >5000 mg/L
- inh % (TBZ alone) ([3]; rate (TBZ) 12.5 mg ai/l): 0%
- inh % (TBZ alone) ([3]; rate (TBZ) 25 mg ai/l): 0%
- inh % (TBZ alone) ([3]; rate (TBZ) 50 mg ai/l): 0%
- inh % (TBZ alone) ([3]; rate (TBZ) 100 mg ai/l): 0%
- inh % (TBZ alone) ([3]; rate (TBZ) 200 mg ai/l): 0%
- inh % (TBZ alone) ([4]; test 006-2005, TBZ 0.2 mg ai/l): 0%
- inh % (TBZ alone) ([4]; test 006-2005, TBZ 0.8 mg ai/l): 0%
- inh % (TBZ alone) ([4]; test 006-2005, TBZ 1.6 mg ai/l): 0%
- inh % (TBZ alone) ([4]; test 015-2005, TBZ 0.2 mg ai/l): 0%
- inh % (TBZ alone) ([4]; test 015-2005, TBZ 1.6 mg ai/l): 0%
- inh % (TBZ alone) ([4]; test 015-2005, TBZ 3.1 mg ai/l): 0%
- inh % (TBZ alone) ([4]; test 015-2005, TBZ 6.25 mg ai/l): 0%
- inh % (TBZ alone) ([4]; test 015-2005, TBZ 25 mg ai/l): 0%
- inh % (TBZ alone) ([4]; test 015-2005, TBZ 100 mg ai/l): 0%
- inh % (TBZ alone) ([5]; test 006-2005, TBZ 0.8 mg ai/l): 0%
- inh % (TBZ alone) ([5]; test 015-2005, TBZ 0.2 mg ai/l): 0%
- inh % (TBZ alone) ([5]; test 015-2005, TBZ 0.8 mg ai/l): 0%
- inh % (TBZ alone) ([6]; TBZ 0.2 mg ai/l): 0%
- inh % (TBZ alone) ([6]; TBZ 0.8 mg ai/l): 0%
- inh % (TBZ alone) ([6]; TBZ 1.6 mg ai/l): 10%
- inh % (TBZ alone) ([7]; TBZ 3.1 mg ai/l, listed as TBZ): 0% and 10%
- inh % (TBZ alone) ([7]; TBZ 6.25 mg ai/l): 10%
- inh % (TBZ alone) ([7]; TBZ 25 mg ai/l): 30%
